Laboratory results taken from patent US20080253972A1, “Aqueous/alcoholic deodorant composition comprising a water-soluble zinc salt and salicylic acid” (priority 2006, published 2008).

Tested on: Corynebacterium xerosis
Test: Quantitative determination of bactericidal activity with regard to microorganisms involved in axillary odors
Type: cell-based
Conditions: 24 hours contact, carrier gel pH 7, Log reduction classes
Description: The test described here makes possible the quantitative determination of the bactericidal activity of an active principle (i.e.: zinc salicylate/salicylic acid or triclosan) conveyed in an appropriate carrier which is neutral with regard to the bacteria tested. The bacteria studied were microorganisms under optimum growth conditions, namely microorganisms of the Corynebacterium xerosis type (Institut Pasteur Collection No. 5216) cultured on a gradient of tryptocasein soybean agar.
The day before the test, 32 g of tryptocasein soybean broth was placed in a sample tube and incubated at 35° C. The day of the test, 4 g of the test composition was added and the mixture was homogenized using a Vortex render.
A growth control without product was also prepared under the same conditions in order to confirm that the microorganisms are under favorable growth conditions throughout the duration of the test. […]
The colonies on the dishes comprising more than 20 and less than 200 colonies were counted. […]
The following two carrier gels A and B were prepared (amounts expressed as percentages by weight): […]
The bactericidal activity of each of formulations 9 and 10 (see below) with regard to the Corynebacterium xerosis strain was measured and compared to a formulation devoid of active principle.

## Oc1cc(Cl)ccc1Oc1ccc(Cl)cc1Cl [Triclosan, 2,4,4′-trichloro-2′-hydroxydiphenyl ether]
  Effectiveness at 24 hours with respect to the gel devoid of active principle: Excellent
